Experimental data taken from publication PMC8620494, “Synthesis of Purine-Based Ionic Liquids and Their Applications” (Molecules, 2021).
Like-named read-outs stand apart in the source and are kept apart here.

Tests used:
[1] = Description: Samples were quantified, as previously described, at 316 nm (see Figure S1). All assays were performed in triplicates. To verify the integrity of the IL, the liquid phase was analyzed by ^1H and ^13C NMR.
[2] = test system: Raphidocelis subcapitata; details: for Acute hazard category according to European legislation: based on 96 h EC50 in mg∙L^−1; for EC50: 96 h incubation, microalgae yield, 95% confidence limits in parenthesis
Description: The microalgae ecotoxicity assays were conducted, as previously described in detail, using the microalgae Raphidocelis subcapitata, i.e., following the guidelines of OECD [38], and adapted to the use of 24-well microplates. […] The microalgae were exposed to a range of concentrations of each salt, and all the assays, including the MBL blank control, were conducted in triplicate. The microplates were incubated for 96 h, under controlled incubation conditions, as used for the inoculum. After that time, the microalgae yield in each treatment was calculated as the difference between the cell densities at the end and beginning of the test.

[3] = remark: listed apart in the source
Description: Theobromine has relatively strong intermolecular hydrogen bonding between its carbonyl groups and strong π–π stacking interactions. In theophylline, the hydrogen between the two carbonyl groups is replaced by a methyl group, causing the previously mentioned interactions to be weaker. […] Adding alkyl groups to ILs usually lowers their solubility. […] The overall poor solubility of purines is connected to their inter-base hydrogen bonding. The insertion of the methyl groups replaces protons that would otherwise be available to form inter-base hydrogen bonds.

[4] = for Aqueous solubility enhancement (S/S0) of the salt relative to its free purine: S molar water-solubility of salt at 298 K, S0 of free purine from PubChem; for Molar water-solubility (S): pure water, 72 h, shake-flask; for Molar water-solubility (S) / pH saturated (pH of the saturated IL solution): (298 ± 1) K; for pH saturated (pH of the saturated IL solution): saturated aqueous solution
Description: IL solubility studies were performed using the isothermal shake-flask method, as reported in the literature. […] If needed, samples were centrifuged for 2 min at 12,000 rpm. Samples of the liquid phase were collected and diluted in distilled water, followed by the preparation of a calibration curve for each compound of interest. The amount of compound in the liquid phase was quantified using a UV–Vis Synergy HT microplate reader from BioTek (Winooski, VT, USA). […] All assays were performed in triplicate. The pH (±0.02) of the samples was determined by using a Mettler Toledo SevenMultiTMdual pH meter.

[5] = TGA, nitrogen, 2 K·min^−1, peak of the derivative
Description: The melting temperatures (Tm) were measured in a differential scanning calorimetry (DSC), using a Hitachi DSC7000X equipment at atmospheric pressure, with hermetically sealed aluminum crucibles and a constant flow of nitrogen. […] Each sample underwent three cycles of cooling and heating, at 5 K∙min^−1 and 2 K∙min^−1, respectively. The melting point of each compound was taken as the peak temperature. The determined melting points are estimated to have a 1 K uncertainty. […] Each sample was heated in an aluminia pan, under a nitrogen atmosphere, with a heating rate of 2 K·min^−1. The degradation temperature-associated uncertainty is estimated to be 0.01 K. Degradation temperature was taken as the peak temperature of the derivative.

[6] = cited from earlier work
[7] = IL solution 0.05 mol∙L-1 before addition of ferulic acid
[8] = IL solution 0.05 mol∙L-1 saturated with ferulic acid
[9] = IL solution 0.1 mol∙L-1 before addition of ferulic acid
[10] = IL solution 0.1 mol∙L-1 saturated with ferulic acid
[11] = IL solution 0.25 mol∙L-1 before addition of ferulic acid
[12] = IL solution 0.25 mol∙L-1 saturated with ferulic acid
[13] = IL solution 0.5 mol∙L-1 before addition of ferulic acid
[14] = IL solution 0.5 mol∙L-1 saturated with ferulic acid
[15] = IL solution 1.0 mol∙L-1 before addition of ferulic acid
[16] = IL solution 1.0 mol∙L-1 saturated with ferulic acid
[17] = IL solution 1.5 mol∙L-1 before addition of ferulic acid
[18] = IL solution 1.5 mol∙L-1 saturated with ferulic acid

SMILES	Initial solution pH [1, 7]	Saturated solution pH [1, 8]	Initial solution pH [1, 9]	Saturated solution pH [1, 10]	Initial solution pH [1, 11]	Saturated solution pH [1, 12]	Initial solution pH [1, 13]	Saturated solution pH [1, 14]	Molar water-solubility (S) [4] [mM]	pH saturated (pH of the saturated IL solution) [4]	Decomposition temperature (Td) [5] [K]	other results
CCCC[N+](CCCC)(CCCC)CCCC.[Cl-] [[N4444]Cl, tetrabutylammonium chloride, reference compound]	5.71	3.29	6.31	2.89	5.62	2.63	4.26	2.36	–	–	–	Initial solution pH [1, 15]: 4.04; Saturated solution pH [1, 16]: 2.10; Initial solution pH [1, 17]: 4.20; Saturated solution pH [1, 18]: 2.26; Acute hazard category according to European legislation [2]: acute 2 (acute 2 category (1 < EC50 < 10 mg∙L^−1)); pH initial ([3]; initial aqueous solution of [N4444]Cl 1.0 mol∙L-1): 4.23
CCCC[N+](CCCC)(CCCC)CCCC.Cn1cnc2c1c(=O)[n-]c(=O)n2C [[N4444][Theob], Tetrabutylammonium theobrominate]	10.85	5.36	11.56	5.54	11.80	8.51	11.98	9.62	1590 ± 70	12.76	457 ± 1	Aqueous solubility enhancement (S/S0) of the salt relative to its free purine [4]: 870 fold; S/S0 of ferulic acid recalculated with S0 at a similar pH to that of the sample ([1]; all tested IL concentrations, 303 K): < 1
CCCC[N+](CCCC)(CCCC)CCCC.Cn1c(=O)c2[n-]cnc2n(C)c1=O [[N4444][Theop], Tetrabutylammonium theophyllinate]	8.91	5.30	10.52	6.44	10.81	6.56	10.78	7.65	2200 ± 100	10.89	486 ± 1	Aqueous solubility enhancement (S/S0) of the salt relative to its free purine [4]: 53 fold; Initial solution pH [1, 15]: 11.06; Saturated solution pH [1, 16]: 8.63; Initial solution pH [1, 17]: 10.68; Saturated solution pH [1, 18]: 9.95
CCCC[N+](CCCC)(CCCC)CCCC.O=c1[n-]c2[nH]c(=O)[nH]c2c(=O)[nH]1 [[N4444][Ur], Tetrabutylammonium urate]	–	–	–	–	–	–	–	–	96 ± 7	8.31	505 ± 1	EC50 [2]: 2.7 µg/mL
CCCC[N+](CCCC)(CCCC)CCCC.O=c1[nH]c(=O)c2[n-]cnc2[nH]1 [[N4444][Xan], Tetrabutylammonium xanthinate]	–	–	–	–	–	–	–	–	170 ± 10	10.14	495 ± 1	EC50 [2]: 0.8 µg/mL; Acute hazard category according to European legislation [2]: acute 1 (acute 1 category (EC50 < 1 mg∙L^−1))
O.O=c1[nH]c2nc([O-])nc([O-])c2[nH]1.[K+].[K+] [potassium urate]	–	–	–	–	–	–	–	–	–	–	–	Water-solubility of other urate salts [6]: 12.06 mM
Cn1c(=O)c2[n-]cnc2n(C)c1=O.[Na+] [sodium theophyllinate]	–	–	–	–	–	–	–	–	–	–	–	Molar solubility of sodium theophyllinate in pure water (S0) [3]: 260 ± 10 mM; pH saturated ([3]; [N4444]Cl 1.0 mol∙L-1 solution saturated with sodium theophyllinate): 10.55
O=c1[nH]c(=O)c2[nH]c([O-])nc2[nH]1.[Na+] [sodium urate]	–	–	–	–	–	–	–	–	–	–	–	Water-solubility of other urate salts [6]: 6.76 mM
O=c1[nH]c(=O)c2[nH]c(=O)[nH]c2[nH]1 [uric acid]	–	–	–	–	–	–	–	–	–	–	–	Molar water-solubility of the free purine (S0) ([6]; (293 ± 1) K, ref PubChem [53]): 0.357 mM
